From ChEMBL document CHEMBL1125966, “Synthesis and pharmacological evaluation of combined thromboxane receptor antagonist/synthase inhibitors: pyridine-containing sulphonamido acids” (Bioorg Med Chem Lett, 1991)

Legend:
Thromboxane A2 receptor [1] = molecular target: T1, Thromboxane A2 receptor (Rattus norvegicus, UniProt P34978); assay: In vitro thromboxane A2 receptor antagonism through inhibition of U-46619 induced contraction of rat isolated thoracic aortic strip; type: functional; conditions: read-out: pA2 (converted)
T1 sequence (P34978 whole entry): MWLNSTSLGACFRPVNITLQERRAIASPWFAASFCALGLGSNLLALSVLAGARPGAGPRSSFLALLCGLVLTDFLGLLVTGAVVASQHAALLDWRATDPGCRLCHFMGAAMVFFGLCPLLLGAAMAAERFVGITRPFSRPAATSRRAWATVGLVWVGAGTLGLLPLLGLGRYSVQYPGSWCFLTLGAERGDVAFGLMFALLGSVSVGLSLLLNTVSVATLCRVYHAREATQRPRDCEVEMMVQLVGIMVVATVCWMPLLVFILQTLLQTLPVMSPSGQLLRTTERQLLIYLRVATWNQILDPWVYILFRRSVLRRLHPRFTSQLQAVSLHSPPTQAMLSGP

Thromboxane-A synthase = molecular target: T2, Thromboxane-A synthase (Homo sapiens, UniProt P24557); assay: In vitro inhibition of collagen-induced thromboxane A2 production in human whole blood; type: functional, tissue-based
T2 sequence (P24557 whole entry): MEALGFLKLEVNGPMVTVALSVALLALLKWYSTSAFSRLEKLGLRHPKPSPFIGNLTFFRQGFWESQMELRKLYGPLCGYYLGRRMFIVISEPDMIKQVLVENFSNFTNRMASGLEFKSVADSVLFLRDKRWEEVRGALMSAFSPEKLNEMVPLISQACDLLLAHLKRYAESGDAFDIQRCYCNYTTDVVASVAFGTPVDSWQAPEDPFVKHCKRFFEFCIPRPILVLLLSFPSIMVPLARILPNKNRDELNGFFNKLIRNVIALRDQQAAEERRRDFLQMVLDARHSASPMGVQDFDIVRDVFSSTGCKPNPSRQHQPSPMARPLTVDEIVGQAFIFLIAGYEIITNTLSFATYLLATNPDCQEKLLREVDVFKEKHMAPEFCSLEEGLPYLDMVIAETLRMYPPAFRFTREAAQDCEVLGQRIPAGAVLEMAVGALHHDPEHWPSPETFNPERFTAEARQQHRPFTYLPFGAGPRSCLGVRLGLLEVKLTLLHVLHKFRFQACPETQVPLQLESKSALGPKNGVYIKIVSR

Thromboxane A2 receptor [2] = molecular target: T3, Thromboxane A2 receptor (Homo sapiens, UniProt P21731); assay: In vitro thromboxane A2 receptor antagonism through inhibition of U-46619 induced platelet aggregation in human whole blood; type: functional, tissue-based; conditions: read-out: pA2 (converted)
T3 sequence (P21731 whole entry): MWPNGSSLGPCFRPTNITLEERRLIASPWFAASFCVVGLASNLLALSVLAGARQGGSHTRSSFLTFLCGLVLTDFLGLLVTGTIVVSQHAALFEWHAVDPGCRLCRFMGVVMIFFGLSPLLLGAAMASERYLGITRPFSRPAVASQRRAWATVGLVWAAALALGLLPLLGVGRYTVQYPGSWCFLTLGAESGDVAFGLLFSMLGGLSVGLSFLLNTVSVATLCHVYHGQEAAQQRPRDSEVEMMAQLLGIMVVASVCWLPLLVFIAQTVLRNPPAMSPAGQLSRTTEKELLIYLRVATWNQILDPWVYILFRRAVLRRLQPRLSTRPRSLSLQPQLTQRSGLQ

[3] = The half life period was determined; type: ADME
Canis familiaris [4] = assay: Tested ex vivo for the percent inhibition of serum TXA2 production with collagen-induced platelet aggregation in conscious dog at dosage of 10 mg/kg for 12 to 24 h; type: functional; conditions: Canis lupus familiaris
Canis familiaris [5] = assay: Tested ex vivo for the percent inhibition of serum TXA2 production with collagen-induced platelet aggregation in anasthetised dog after administration at a dose of 10 ug/kg/min; type: functional; conditions: Canis lupus familiaris

Row | SMILES | Kb (Thromboxane A2 receptor [1]) [nM] | IC50 (Thromboxane-A synthase) [nM] | Kb (Thromboxane A2 receptor [2]) [nM] | half-life [3] [min] | inhibition in vivo at 10 mg/kg (Canis familiaris [4]) [%] | inhibition in vivo at 10 µg/kg/min (Canis familiaris [5]) [%]
1 | O=C(O)CO/N=C(/c1cccnc1)c1cccc(CCNS(=O)(=O)c2ccc(I)cc2)c1 | 1.58 | > 1000 | 200 | – | – | –
2 | O=C(O)CCC/C=C(/c1cccnc1)c1cccc(CCNS(=O)(=O)c2ccc(Cl)c(Cl)c2)c1 | 63.1 | 63.1 | 316 | – | – | –
3 | CC(C)(CNS(=O)(=O)c1ccc(I)cc1)c1cccc(/C(=C\CCCC(=O)O)c2cccnc2)c1 | 0.631 | 31.6 | 200 | – | > 90 | > 98
4 | O=C(O)CCC/C=C(/c1cccnc1)c1cccc(CCNS(=O)(=O)c2ccc([N+](=O)[O-])cc2)c1 | 3.98 | 39.8 | 631 | – | – | –
5 | O=C(O)CCCO/N=C(/c1cccnc1)c1cccc(CCNS(=O)(=O)c2ccc(I)cc2)c1 | 12.6 | 200 | 1580 | < 30 | – | –
6 | O=C(O)CC/C=C(/c1cccnc1)c1cccc(CCNS(=O)(=O)c2ccccc2)c1 | 31.6 | 79.4 | 7940 | – | – | –
7 | O=C(O)CCCCO/N=C(/c1cccnc1)c1cccc(C(F)(F)F)c1 [RIDOGREL] | – | – | – | < 30 | – | –

Continued by falling IC50 (Thromboxane-A synthase), values first:

Row | Kb (Thromboxane A2 receptor [1]) [nM] | IC50 (Thromboxane-A synthase) [nM] | Kb (Thromboxane A2 receptor [2]) [nM] | half-life [3] [min] | SMILES | inhibition in vivo at 10 mg/kg (Canis familiaris [4]) [%] | inhibition in vivo at 10 µg/kg/min (Canis familiaris [5]) [%]
8 | 0.631 | 501 | 100 | < 30 | O=C(O)CCO/N=C(/c1cccnc1)c1cccc(CCNS(=O)(=O)c2ccc(I)cc2)c1 | – | –
9 | 200 | 200 | 2000 | < 30 | O=C(O)CCCCO/N=C(/c1cccnc1)c1cccc(CCNS(=O)(=O)c2ccc(I)cc2)c1 | – | –
10 | 2 | 200 | 316 | < 30 | CC(C)(CNS(=O)(=O)c1ccc(I)cc1)c1cccc(/C(=N\OCCC(=O)O)c2cccnc2)c1 | – | –
11 | 15.8 | 50.1 | 794 | – | O=C(O)CCC/C=C(/c1cccnc1)c1cccc(CCNS(=O)(=O)c2ccccc2)c1 | – | –
12 | 200 | 50.1 | 1000 | – | O=C(O)CCC/C=C(/c1cccnc1)c1cccc(CCNS(=O)(=O)c2ccccc2[N+](=O)[O-])c1 | – | –
13 | 126 | 50.1 | 1000 | – | O=C(O)CCC/C=C(/c1cccnc1)c1cccc(CCCNS(=O)(=O)c2ccccc2)c1 | – | –
14 | 1 | 31.6 | 631 | – | O=C(O)CCC/C=C(/c1cccnc1)c1cccc(CCNS(=O)(=O)c2ccc(I)cc2)c1 | – | > 98
15 | 25.1 | 31.6 | 794 | – | O=C(O)CCC/C=C(/c1cccnc1)c1cccc(CCNS(=O)(=O)c2ccc(F)cc2)c1 | – | –
16 | 10 | 20 | 794 | – | O=C(O)CCCC/C=C(/c1cccnc1)c1cccc(CCNS(=O)(=O)c2ccc(I)cc2)c1 | – | –
